Laboratory results published in US6686391B2, “N-chlorophenylcarbamate and N-chlorophenylthiocarbamate compositions” (University of Arizona Foundation, priority 1995, dated 2004).
≈ marks a conversion by molar mass, not a printed value. Where two headings read alike, the source gives them in different places.

How the values were obtained:
[1] = system: HIV; test: Acute HIV study, in vitro acute model; type: cell-based; conditions: in vitro acute model for HIV
Experimental: In an in vitro acute model for HIV chloropropham inhibited viral replication by 47% at 10 μg/ml and AZT inhibited viral replication by 98% at 1 μg/ml. The therapeutic index for chloropropham is 2.5 compared to 12,500 for AZT. The therapeutic index is ratio of toxic dose of the drug to the efficacious dose of the drug.

[2] = system: HIV replication in monocytes (chronic HIV-1 infected promonocytic cells U1); test: HIV chronic study, chronically HIV-1 infected promonocytic U1 cells; type: cell-based
Experimental: (§1) Chronic HIV-1 infected promonocytic cells U1 were derived from an acute HIV-1 infection of the promonocytic cell line, U937. The chronic HIV-1 infected T-cells, ACH-2, were derived from an acute HIV-1 infection of the T cell line, A3.01.
(§2) These cells were cultured in medium and the phorbol ester, PMA. PMA causes the cells (both U1 and ACH-2) to be activated and not divide but it also causes the U-1 cells to differentiate. […] Cell viability was measured when these cell lines were treated with the test compounds.
(§3) Both cell lines constituitively produce a small amount of HIV-1. ACH-2 cell lines tend to produce more HIV-1 than U1 cells as shown by p-24 ELISA. When either cell line is cultured in the presence of PMA there is an increase in the quantity of HIV-1 produced as measured by the p-24 antigen ELISA.
(§4) In addition, the number of […] positive HIV mRNA expressing cells per microscopic field is measured. Comparisons can be made from these numbers since the same number of cells were adhered to the glass slides for each drug concentration (10×10^6 cells/ml).

[3] = system: colon tumor cells (HT29); test: MTT cell viability test, colon tumor cells; type: cell-based; conditions: Homo sapiens, HT-29, 120 h
Experimental: (§5) The following cell culture tests were performed to test the toxicity of N-chlorophenylcarbamates and N-chlorophenylthiocarbamates compounds on colon, breast and lung human tumor cells. The viability of the cells were tested by looking at MTT (3-[4,5-dimethylthiazol-2-yl]-2,5-diphenyltetrazolium bromide) reduction. MTT assay is a well known measure of cell viability.
(§6) The colon tumor cells (HT29 from American Type Culture Collection (ATCC)) and the breast cells (MX1 from cell lines from ATCC) were cultured in Eagle's Minimal Essential Medium with 10% fetal bovine serum. The lung tumor cells (A549 from ATCC cell lines) were cultured in Ham's F12 medium with 10% fetal bovine serum.
(§7) The tumor cells were passaged and seeded into culture flasks at the desired cell densities. The culture medium was decanted and the cell sheets were washed twice with phosphate buffered saline (PBS). The cells were trypsinized and triturated prior to seeding the flasks. Unless otherwise indicated the cultures were incubated at 37±1° C. in a humidified atmosphere of 5±1% carbon dioxide in air. The cultures were incubated until they were 50-80% confluent.
(§8) The cells were subcultured when the flasks were subconfluent. The medium was aspired from the flasks and the cell sheets rinsed twice with PBS. Next, the Trypsin Solution was added to each flask to cover the cell sheet. The Trypsin Solution was removed after 30-60 seconds and the flasks were incubated at room temperature for two to six minutes. When 90% of the cells became dislodged, growth medium was added. The cells were removed by trituration and transferred to a sterile centrifuge tube. The concentration of cells in the suspension was determined, and an appropriate dilution was made to obtain a density of 5000 cells/ml. The cells were subcultured into the designated wells of the 96-well bioassay plates (200 microliter cell suspension per well). PBS was added to all the remaining wells to maintain humidity. The plates were then incubated overnight before test article treatment.
(§9) Each dose of test article was tested by treating quadruplicate wells of cultures with 100 microliter of each dilution. Those wells designated as solvent controls received an additional 100 microliters of methanol control; negative controls wells received an additional 100 microliters of treatment medium. PBS was added to the remaining wells not treated with test article or medium. The plates were then incubated for approximately 5 days. […]
(§10) The absorbance at 550 nm (OD550) of each well was measured with a Molecular Devices (Menlo Park, Calif.) VMax plate reader.
(§11) The mean OD550 of the solvent control wells and that of each test article dilution, and that of each of the blank wells and the positive control were calculated. […]

[4] = system: Broncheal Cells; test: EC-50 in normal healthy cells, bronchial cells; type: cell-based
[5] = system: Kerotinoyle Cells; test: EC-50 in normal healthy cells, keratinocytes; type: cell-based; conditions: Keratinocyte
[6] = system: Fibroblasts; test: EC-50 in normal healthy cells, fibroblasts; type: cell-based; conditions: Fibroblast
[7] = system: breast cells (MX1); test: MTT cell viability test, breast cells; type: cell-based; conditions: Homo sapiens, 120 h
Experimental: as §5, §6, §7, §8, §9, §10, §11

[8] = system: lung tumor cells (A549); test: MTT cell viability test, lung tumor cells; type: cell-based; conditions: Homo sapiens, A549, 120 h
Experimental: as §5, §6, §7, §8, §9, §10, §11

[9] = system: HIV replication in T-cells (chronic HIV-1 infected T-cells, ACH-2); test: HIV chronic study, chronically HIV-1 infected ACH-2 T-cells; type: cell-based; conditions: chronic HIV model, ACH-2 cells
Experimental: as §1, §2, §3, §4

[10] = system: leukemia (P388); test: In vivo mouse model for leukemia
[11] = system: breast, colon, non-small cell lung and ovarian tumors; test: In vitro human tumor colony forming units test, continuous exposure; type: cell-based
Experimental: Solid tumors removed from patients are minced into 2 to 5 mm fragments and immediately placed in McCoy's Medium 5A plus 10% heat inactivated newborn calf serum plus 1% penicillin/streptomycin. Within 4 hours, these solids tumors are mechanically disassociated with scissors, forced through No. 100 stainless steel mesh, through 25 gauge needles, and then washed with McCoy's medium as described above. Ascitic, pleural, pericardial fluids and bone marrow are obtained by standard techniques. The fluid or marrow is placed in sterile containers containing 10 units of preservative free heparin per ml. of malignant fluid or marrow. After centrifugation at 150×g for 10 minutes, the cells are harvested and washed with McCoy's medium plus 10% heat inactivated calf serum. The viability of cell suspensions is determined on a hemocytometer with trypan blue.
Cells to be cloned are suspended in 0.3% agar in enriched CMRL1066 supplemented with 15% heat inactivated horse serum, penicillin (100 units/ml), streptomycin (2 mg/ml), glutamine (2 mM), insulin (3 units/ml), asparagine (0.6 mg/ml), and HEPES buffer (2 mM). For the continuous exposure test each compound is added to the above mixture. […] If there is <30% colonies in the positive control when compared to the untreated control, the test is evaluated.

[12] = system: murine melanoma (B16); test: In vivo mouse model for murine melanoma
[13] = system: breast cancer (MXI); test: In vivo mouse model for breast cancer
[14] = system: influenza; test: In vitro model for influenza; type: cell-based
[15] = system: Rhinovirus; test: In vivo Rhinovirus screening test
[16] = system: herpes; test: In vivo herpes screening test; design: species or system mice
Experimental: In an in vivo herpes screening test, at a dose of 150 mg/kg dose, 60% of the mice survived with a 10.2 mean death date. The positive control was acyclovir at 75 mg/kg dose; 60% of the mice survived with a mean death date of 17.2 days.

[17] = system: herpes; test: In vitro herpes screening model; type: cell-based
[18] = system: influenza; test: In vivo model for influenza
[19] = doses from 50-400 mg/kg; 1958, 1959, 1972; cited from earlier work
[20] = 75 mg/kg dose, positive control

SMILES: Cc1cn([C@H]2C[C@H](N=[N+]=[N-])[C@@H](CO)O2)c(=O)[nH]c1=O [AZT, reference compound]
- inhibition of viral replication ([1]; 1 μg/ml): 98%
- action in the HIV chronic model [2]: no action

SMILES: COc1cccc2c1C(=O)c1c(O)c3c(c(O)c1C2=O)C[C@@](O)(C(=O)CO)C[C@@H]3O[C@H]1C[C@H](N)[C@H](O)[C@H](C)O1 [Adriamycin, doxorubicin (adriamycin), reference compound]
- EC50 ([3]; MTT, 5 day incubation, first HT29 column, read-out: EC-50 Result HT29): 0.003 µg/mL (≈ 0.00552 µM)
- EC50 ([3]; MTT, 5 day incubation, second HT29 column, read-out: EC-50 Result HT29): 0.006 µg/mL (≈ 0.011 µM)
- EC50 ([4]; normal healthy cells, first value, read-out: EC-50 Broncheal Cells): 0.015 µg/mL (≈ 0.0276 µM)
- EC50 ([4]; normal healthy cells, second value, read-out: EC-50 Broncheal Cells): 0.002 µg/mL (≈ 0.00368 µM)
- EC50 ([5]; normal healthy cells, first value, read-out: EC-50 Kerotinoyle Cells): 0.0035 µg/mL (≈ 0.00644 µM)
- EC50 ([5]; normal healthy cells, second value, read-out: EC-50 Kerotinoyle Cells): 0.0093 µg/mL (≈ 0.0171 µM)
- EC50 ([6]; normal healthy cells, first value, read-out: EC-50 Fibroblasts): 0.065 µg/mL (≈ 0.12 µM)
- EC50 ([6]; normal healthy cells, second value, read-out: EC-50 Fibroblasts): 0.1 µg/mL (≈ 0.184 µM)
- EC50 ([7]; MTT, 5 day incubation, first MX1 column, read-out: EC-50 Result MX1): 0.02 µg/mL (≈ 0.0368 µM)
- EC50 ([7]; MTT, 5 day incubation, second MX1 column, read-out: EC-50 Result MX1): 0.001 µg/mL (≈ 0.00184 µM)
- EC50 ([8]; MTT, 5 day incubation, first A549 column, read-out: EC-50 Result A549): 0.03 µg/mL (≈ 0.0552 µM)
- EC50 ([8]; MTT, 5 day incubation, second A549 column, read-out: EC-50 Result A549): 0.009 µg/mL (≈ 0.0166 µM)

SMILES: CC(C)OC(=O)Nc1cccc(Cl)c1 [Chloropropham, (3-chlorophenyl)carbamic acid 1-methylethyl ester]
- EC50 ([3]; read-out: EC-50 Result HT29, MTT, 5 day incubation, first HT29 column): 13.3 µg/mL (≈ 62.2 µM)
- EC50 ([3]; read-out: EC-50 Result HT29, MTT, 5 day incubation, second HT29 column): 11.4 µg/mL (≈ 53.4 µM)
- increase in HIV replication in T-cells [9]: 101%
- activity in in vivo mouse model for leukemia (P388) [10]: no activity
- inhibition at 10 µg/mL ([1]; Human immunodeficiency virus 1, 10 μg/ml, read-out: inhibition of viral replication): 47%
- EC50 ([4]; read-out: EC-50 Broncheal Cells, normal healthy cells, second value): > 15.2 µg/mL
- effective against tumors (fraction) ([11]; 100 μg/ml, continuous exposure, breast, colon, non-small cell lung and ovarian tumors): 6/7
- effectiveness against tumors ([11]; 1 and 10.0 μg/ml): not effective
- EC50 ([5]; read-out: EC-50 Kerotinoyle Cells, normal healthy cells, first value): 3.9 µg/mL (≈ 18.3 µM)
- EC50 ([5]; read-out: EC-50 Kerotinoyle Cells, normal healthy cells, second value): 13 µg/mL (≈ 60.8 µM)
- activity in in vivo mouse model for murine melanoma (B16) [12]: no activity
- suppression of HIV replication in monocytes ([2]; chronic HIV model, U1 cells): 79%
- activity in in vivo mouse model for breast cancer (MXI) [13]: no activity
- EC50 ([6]; read-out: EC-50 Fibroblasts, normal healthy cells, first value): > 152 µg/mL
- EC50 ([6]; read-out: EC-50 Fibroblasts, normal healthy cells, second value): 64.2 µg/mL (≈ 300 µM)
- activity in in vitro model for influenza [14]: did not show activity
- activity in in vivo Rhinovirus screening test [15]: Nor was it active
- EC50 ([7]; read-out: EC-50 Result MX1, MTT, 5 day incubation, first MX1 column): 91.8 µg/mL (≈ 430 µM)
- EC50 ([7]; read-out: EC-50 Result MX1, MTT, 5 day incubation, second MX1 column): 108 µg/mL (≈ 505 µM)
- mean death date ([16]; 150 mg/kg dose): 10.2
- mice survived ([16]; 150 mg/kg dose): 60%
- activity in in vitro herpes screening model [17]: Nor was it active
- activity in in vivo model for influenza [18]: did not show activity
- activity in National Cancer Institute tests [19]: no activity
- EC50 ([8]; read-out: EC-50 Result A549, MTT, 5 day incubation, first A549 column): 12.6 µg/mL (≈ 59 µM)
- EC50 ([8]; read-out: EC-50 Result A549, MTT, 5 day incubation, second A549 column): 92.5 µg/mL (≈ 433 µM)

SMILES: Nc1nc2c(ncn2COCCO)c(=O)[nH]1 [acyclovir, reference compound]
- mean death date [16, 20]: 17.2 days
- mice survived [16, 20]: 60%
